Experiments:
Assay in all cases: Bliss excess, mean over the matrix (fraction); higher = more synergy
[1] = tested on: L-540 (Hodgkin's Lymphoma)
In short: (§1)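 Bliss excess equals the observed combination effect minus the expected value EA + EB − EA·EB, where EA and EB are the effects of each agent alone. Combination Emax is the second-highest inhibition within the matrix. Inhibition was scaled from CellTiter-Glo 2.0 luminescence, with 0 set by vehicle wells and 1 by blank wells, after 72 hours of two-drug dosing of cells plated in 1536-well plates.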

[2] = tested on: P12-ICHIKAWA (T-Lymphoblastic Leukemia)
In short: as §1

[3] = tested on: MFM-223 (Breast Carcinoma)
In short: as §1

[4] = tested on: KYSE-180 (Esophageal Squamous Cell Carcinoma)
In short: as §1

LN-18 (Glioblastoma) = tested on: LN-18 (Glioblastoma)
In short: as §1

[5] = tested on: SW837 (Colorectal Carcinoma)
In short: as §1

[6] = tested on: DND-41 (T-Lymphoblastic Leukemia)
In short: as §1

TC-71 (Ewing's Sarcoma) = tested on: TC-71 (Ewing's Sarcoma)
In short: as §1

U251 (Low Grade Glioma) = tested on: U251 (Low Grade Glioma)
In short: as §1

[7] = tested on: TE-6 (Esophageal Squamous Cell Carcinoma)
In short: as §1

[8] = tested on: SR (Other Blood Carcinomas)
In short: as §1

[9] = tested on: HDQ-P1 (Breast Carcinoma)
In short: as §1

[10] = tested on: KCL-22 (Chronic Myelogenous Leukemia)
In short: as §1

[11] = tested on: EVSA-T (Breast Carcinoma)
In short: as §1

[12] = tested on: PANC-08-13 (Pancreatic Carcinoma)
In short: as §1

[13] = tested on: TOV-112D (Ovarian Carcinoma)
In short: as §1

[14] = tested on: K-562 (Chronic Myelogenous Leukemia)
In short: as §1

[15] = tested on: COLO-678 (Colorectal Carcinoma)
In short: as §1

[16] = tested on: NCI-H1792 (Lung Adenocarcinoma)
In short: as §1

[17] = tested on: DiFi (Colorectal Carcinoma)
In short: as §1

SMILES | Bliss excess [1] | Bliss excess [2] | Bliss excess [3] | Bliss excess [4] | Bliss excess (LN-18 (Glioblastoma)) | Bliss excess [5] | Bliss excess [6] | Bliss excess (TC-71 (Ewing's Sarcoma)) | Bliss excess (U251 (Low Grade Glioma)) | Bliss excess [7] | Bliss excess [8] | Bliss excess [9] | Bliss excess [10] | Bliss excess [11] | Bliss excess [12] | Bliss excess [13] | Bliss excess [14] | Bliss excess [15] | Bliss excess [16] | Bliss excess [17]
CC(=O)c1c(C)c2cnc(Nc3ccc(N4CCNCC4)cn3)nc2n(C2CCCC2)c1=O [Palbociclib] + CC1(C)CCC(CN2CCN(c3ccc(C(=O)NS(=O)(=O)c4ccc(NCC5CCOCC5)c([N+](=O)[O-])c4)c(Oc4cnc5[nH]ccc5c4)c3)CC2)=C(c2ccc(Cl)cc2)C1 [Venetoclax] (first compound max 10 µM, 7x7, partner max 1 µM) | -0.0852 | -0.0157 | 0.0031 | -0.012 | 0.0187 | -0.0671 | -0.0292 | -0.0129 | -0.0348 | -0.0255 | -0.0245 | -0.0555 | 0.0057 | 0.0048 | -0.0361 | 0.0283 | -0.0313 | 0.0158 | -0.0103 | 0.0239
COc1nnc2ccc(N3CCC(c4ccc(OCCN5CCN(C)C(=O)[C@H]5C)cc4)CC3)nn12 [AZD5153] + CC1(C)CCC(CN2CCN(c3ccc(C(=O)NS(=O)(=O)c4ccc(NCC5CCOCC5)c([N+](=O)[O-])c4)c(Oc4cnc5[nH]ccc5c4)c3)CC2)=C(c2ccc(Cl)cc2)C1 [Venetoclax] (first compound max 1 µM, 7x7, partner max 1 µM) | -0.0012 | -0.0389 | -0.0295 | -0.0193 | 0.0348 | -0.0514 | 0.0352 | -0.0443 | -0.0872 | -0.103 | -0.0209 | -0.0307 | -0.0343 | -0.0008 | 0.0065 | -0.0474 | -0.0494 | -0.121 | -0.0215 | 0.0054
NC1(C(=O)N[C@@H](CCO)c2ccc(Cl)cc2)CCN(c2ncnc3[nH]ccc23)CC1 [Capivasertib] + Cn1cnc2c(F)c(Nc3ccc(Br)cc3Cl)c(C(=O)NOCCO)cc21 [Selumetinib] (first compound max 10 µM, 7x7, partner max 10 µM) | -0.0345 | 0.15 | 0.0276 | -0.0307 | 0.0373 | -0.0357 | 0.0293 | 0.0203 | 0.0099 | 0.0032 | 0.0682 | -0.0046 | 0.117 | -0.0157 | 0.0495 | 0.0272 | 0.0713 | -0.0398 | 0.0276 | 0.0049
Cc1c2c(nn1C)CSCc1cc(n(C)n1)CSc1cc(c3ccccc3c1)OCCCc1c(C(=O)O)n(C)c3c-2c(Cl)ccc13 [AZD5991] + Cc1cc2ncnn2cc1Nc1ncc2c(n1)n(C1CCOCC1)c(=O)n2C [AZD7648] (first compound max 1 µM, 7x7, partner max 10 µM) | -0.0036 | -0.0167 | -0.0361 | -0.0126 | -0.025 | -0.0454 | -0.0023 | -0.0745 | -0.0054 | -0.0874 | 0.0257 | -0.0352 | -0.0086 | -0.0156 | 0.0012 | -0.0214 | 0.0044 | -0.0416 | -0.0248 | -0.0448
CN(CCO)CC[C@H](CSc1ccccc1)Nc1ccc(S(=O)(=O)NC(=O)c2ccc(N3CCC([C@@H](O)c4ccccc4-c4ccc(Cl)cc4)CC3)cc2)cc1S(=O)(=O)C(F)(F)F [AZD4320] + CCN(CCO)CCCOc1ccc2c(Nc3cc(CC(=O)Nc4cccc(F)c4)[nH]n3)ncnc2c1 [AZD2811] (first compound max 1 µM, 7x7, partner max 1 µM) | 0.0985 | 0.0103 | -0.0022 | 0.0189 | -0.0187 | 0.0082 | 0.0382 | -0.0299 | 0.0287 | 0.0228 | 0.0343 | 0.0258 | 0.0572 | 0.156 | -0.0166 | 0.0419 | 0.0055 | -0.0247 | -0.0267 | -0.013
Cc1c2c(nn1C)CSCc1cc(n(C)n1)CSc1cc(c3ccccc3c1)OCCCc1c(C(=O)O)n(C)c3c-2c(Cl)ccc13 [AZD5991] + C[C@@H](Nc1cc(F)cc(F)c1)c1cc(C(=O)N(C)C)cc2c(=O)cc(N3CCOCC3)oc12 [AZD8186] (first compound max 1 µM, 7x7, partner max 3 µM) | -0.0224 | -0.0058 | -0.047 | 0.0187 | 0.0079 | -0.0156 | -0.0249 | 0.0276 | -0.0334 | -0.0515 | -0.0278 | -0.0209 | -0.0268 | 0.0412 | 0.0187 | -0.0028 | 0.0096 | -0.0613 | -0.0108 | 0.0406
Cn1cnc2c(F)c(Nc3ccc(Br)cc3Cl)c(C(=O)NOCCO)cc21 [Selumetinib] + C[C@@H]1COCCN1C2=NC(=NC(=C2)C3(CC3)[S@](=N)(=O)C)C4=C5C=CNC5=NC=C4 [AZD6738] (first compound max 10 µM, 7x7, partner max 10 µM) | -0.0415 | 0.0286 | -0.0412 | -0.0249 | -0.0318 | -0.095 | -0.0233 | -0.022 | -0.0149 | 0.0221 | -0.0169 | 0.0228 | -0.0129 | -0.0377 | -0.0351 | -0.0377 | -0.0116 | 0.132 | -0.0049 | 0.0092
COc1nnc2ccc(N3CCC(c4ccc(OCCN5CCN(C)C(=O)[C@H]5C)cc4)CC3)nn12 [AZD5153] + CCN(CCO)CCCOc1ccc2c(Nc3cc(CC(=O)Nc4cccc(F)c4)[nH]n3)ncnc2c1 [AZD2811] (first compound max 1 µM, 7x7, partner max 1 µM) | -0.0477 | 0.0024 | -0.0622 | 0.0356 | -0.107 | -0.0663 | 0.0529 | -0.0316 | 0.0064 | -0.0501 | -0.0672 | -0.008 | 0.0425 | 0.0047 | -0.0175 | -0.0297 | -0.0153 | -0.0409 | -0.083 | -0.068
Cn1cnc2c(F)c(Nc3ccc(Br)cc3Cl)c(C(=O)NOCCO)cc21 [Selumetinib] + C=CCn1c(=O)c2cnc(Nc3ccc(N4CCN(C)CC4)cc3)nc2n1-c1cccc(C(C)(C)O)n1 [AZD1775] (first compound max 10 µM, partner max 1 µM) | -0.0374 | 0.0595 | -0.0831 | -0.122 | -0.0103 | -0.0207 | -0.0248 | -0.039 | -0.0365 | 0.0165 | -0.0132 | -0.0453 | 0.0242 | -0.015 | -0.0849 | -0.0497 | 0.0752 | 0.0011 | -0.0647 | 0.0233
COc1nnc2ccc(N3CCC(c4ccc(OCCN5CCN(C)C(=O)[C@H]5C)cc4)CC3)nn12 [AZD5153] + Cn1cnc2c(F)c(Nc3ccc(Br)cc3Cl)c(C(=O)NOCCO)cc21 [Selumetinib] (first compound max 1 µM, 7x7, partner max 10 µM) | -0.0441 | 0.0746 | -0.0299 | 0.046 | 0.0152 | -0.0187 | 0.0425 | 0.0049 | -0.0062 | -0.0216 | -0.0614 | -0.0697 | 0.0841 | -0.031 | 0.0924 | 0.0303 | -0.001 | -0.0382 | 0.0577 | -0.0011
CN(CCO)CC[C@H](CSc1ccccc1)Nc1ccc(S(=O)(=O)NC(=O)c2ccc(N3CCC([C@@H](O)c4ccccc4-c4ccc(Cl)cc4)CC3)cc2)cc1S(=O)(=O)C(F)(F)F [AZD4320] + Cn1cnc2c(F)c(Nc3ccc(Br)cc3Cl)c(C(=O)NOCCO)cc21 [Selumetinib] (first compound max 1 µM, 7x7, partner max 3 µM) | -0.0184 | 0.0748 | -0.0146 | 0.0148 | 0.031 | -0.0184 | -0.0181 | 0.0614 | -0.0087 | -0.0277 | 0.0208 | 0.0877 | 0.0271 | 0.0703 | 0.0195 | 0.0107 | 0.0465 | 0.0536 | 0.0416 | 0.0838
Cc1c2c(nn1C)CSCc1cc(n(C)n1)CSc1cc(c3ccccc3c1)OCCCc1c(C(=O)O)n(C)c3c-2c(Cl)ccc13 [AZD5991] + Cn1cnc2c(F)c(Nc3ccc(Br)cc3Cl)c(C(=O)NOCCO)cc21 [Selumetinib] (first compound max 1 µM, 7x7, partner max 3 µM) | 0.0007 | 0.0419 | -0.0199 | 0.0341 | 0.0745 | 0.0024 | 0.021 | 0.093 | -0.0024 | 0.0043 | -0.0007 | 0.0002 | 0.078 | 0.0136 | 0.0025 | 0.0038 | 0.0393 | -0.0226 | 0.0347 | 0.0064
CN(CCO)CC[C@H](CSc1ccccc1)Nc1ccc(S(=O)(=O)NC(=O)c2ccc(N3CCC([C@@H](O)c4ccccc4-c4ccc(Cl)cc4)CC3)cc2)cc1S(=O)(=O)C(F)(F)F [AZD4320] + C1CN(CCC1(C(=O)N[C@@H](CCO)C2=CC=C(C=C2)Cl)N)C3=NC=NC4=C3C=CN4 [Capivasertib] (first compound max 1 µM, 7x7, partner max 3 µM) | -0.0075 | 0.0119 | -0.01 | -0.0057 | -0.053 | -0.0453 | -0.0205 | -0.0699 | -0.0689 | 0.0377 | 0.095 | 0.0119 | -0.0075 | -0.0161 | -0.0374 | -0.0183 | -0.0155 | -0.0741 | -0.0643 | -0.0475
CC1(C)CCC(CN2CCN(c3ccc(C(=O)NS(=O)(=O)c4ccc(NCC5CCOCC5)c([N+](=O)[O-])c4)c(Oc4cnc5[nH]ccc5c4)c3)CC2)=C(c2ccc(Cl)cc2)C1 [Venetoclax] + Cn1cnc2c(F)c(Nc3ccc(Br)cc3Cl)c(C(=O)NOCCO)cc21 [Selumetinib] (first compound max 1 µM, 7x7, partner max 3 µM) | -0.0159 | 0.0233 | -0.006 | -0.0128 | -0.0088 | -0.0129 | -0.0048 | -0.0255 | -0.0521 | 0.0203 | 0.0026 | -0.0377 | -0.0032 | -0.017 | -0.0627 | -0.0086 | -0.0074 | -0.0298 | 0 | -0.0967
